Values quoted from earlier work in patent publication US20240077492A1, “ARRAY-BASED PEPTIDE LIBRARIES FOR THERAPEUTIC ANTIBODY CHARACTERIZATION” (Cowper Sciences Inc., priority 2016, published 2024).

Settings: background statement

Q: With “Remicade: one of the most prescribed antibody therapeutics” as the substance, how does the “effective in fraction of the patient population” value read?
A: The value was 25%.
